Data taken from patent publication US6020373A, “Chelate derivatives as protectors against tissue injury” (Eastern Virginia Medical School, priority 1997, dated 2000).
Entries after “also recorded” stand apart in the source; their conditions may differ.

Experiments:
in vivo = conditions: mouse, in vivo, ip
Method: (§1) For all biological studies, the substances were dissolved in water and brought to pH 7. […] Preliminary determination of the approximate toxicity level of the substances was by intraperitoneal (IP) injection of increasing doses into individual Swiss-Webster female mice until toxicity was evident. The maximum tolerated dose was the highest dose given without evident toxic symptoms such as coma, convulsions, or death. The LD 50 (IP) was determined by using at least three doses in 12 mice at each level, bracketing the approximate LD 50. The mice were followed for at least one week and examined for weight changes, general condition, and behavior. The LD 50 with lower and upper confidene iits was calculated from the data.

[1] = system: radiation damage of right hind leg; assay: Radioprotection in mice: radiation damage scores of the irradiated right hind leg; conditions: for Av score (average radiation damage score, day 15-20): 6 mice per group; for effectiveness as radioprotectant: IP, mice, limb irradiation 30-40 Gy; for Av Score (average radiation damage score, day 12-24): 30 Gy to right limb, 12 mice per group, IP mmole/kg: IDA 16.7, EDTA 8.6, MPEG 17.9, MIDA 10.3, MPEDTA 7.7, saline 1.54
Method: The effect of PEG derivatives on tissue tolerance to radiation was tested. Groups of 6 or 12 female Swiss-Webster mice were given IP solutions of the derivatives at a dose of approxfimately one-half of the LD50. Ten minutes later, pentobarbital (PB) 0.262 mmole/kg was given IP, and twenty minutes after the first injection, the right hind leg only was irradiated with 30, 35 or 40 Gy using the Philips RT-250 unit operated under the following conditions: 200 kVp, 20 mA, 0.2 mm Cu added filtration, HVL 0.57 mm Cu, dose rate of 1.834 Gy/min. Mice were irradiated in groups of 6 or 12, and their legs were arranged within a 20×24 cm aperture cone at a 50 cm target-to-skin distance such that all their legs were within a 95% isodose. The output of the X-ray unit was calibrated using a Capintec PT-06C Farmer chamber. Controls received only PB and 0.4 ml normal saline in place of the drug.
The mice were examed daily by two independent observers for 24 days, and the limbs were scored for radiation damage graded on a scale of 0 to 3.5 according to criteria previously established (Fowler, et al., Int. J. Rad. Biol., 9:241-252, 1964). Briefly, a score of 1 corresponds to definite reddening of the foot compared to normal and a score of 2 is marked moist desquamation, loss of hair and skin, and sticking together of toes.

[2] = system: blood urea nitrogen levels (BUN); assay: Effect on renal toxicity of doxorubicin (blood urea nitrogen); conditions: 27 days, FIG. 3; for prevention of doxorubicin-induced BUN increase: 7 mmole/kg IP one hour before 25 mg/kg doxorubicin into tail vein
[3] = system: tissue injury, such as myocardial ischemia-reperfusion injury; conditions: in vivo; cited from earlier work
[4] = in vivo; cited from earlier work
Mice = assay: in vivo; conditions: IP, mice; for LD50: 12 mice at each level, LL and UL confidence limits in own columns; for MTD (maximum tolerated dose): highest dose without evident toxic symptoms such as coma, convulsions, or death
Method: as §1

B16F1 malignant melanoma = assay: Effect on doxorubicin-caused tumor growth lag; format: in vivo, C57Bl/6 mice; conditions: IP 30 minutes before doxorubicin 15 mg/kg IP; FIG. 4
Method: For this assay, the B16F1 malignant melanoma which grows in isologous C57Bl/6 mice was used. […] When the tumors reached an average of 6-8 mm diameter, they were placed in closely matched groups of 12 with similar average size tumors. The groups were injected intraperitoneally with either saline or MPEDTA, followed 30 minutes later by doxorubicin 15 mg/kg IP or saline. Tumor volumes were assessed by daily caliper measreients m two orthogonal planes. Tumor length is defined as the diameter in the plane parallel to the body, while width is defined as the diameter perpendicular to the body. Diameter product (in mm^2) was used as the index of tumor growth. The tumor areas were averaged and plotted vs. time to show growth delay as a function of the various treatments. When the average area reached […], the mice were killed by cervical dislocation. The results are in FIG. 4. The solid circles indicate the groups receiving saline-saline or MPEDTA-saline, the solid squares indicate the group receiving saline-doxorubicin, and the solid triangles indicate the group receiving MPEDTA-doxorubicin.

[5] = 40 Gy, IP mmole/kg: EDTAE, DTPA ester, MPDTE 1.0, MPEDTAE 2.0, MPEDTA 8.0, saline 2.93
[6] = 35 Gy, IP mmole/kg: EDTA, DTPA, MPEDTA, MPDTP 8.0, EDTAE 1.0, MPEDTAE, MPDTE 2.0, saline 2.36

Compound | MTD (in vivo) [µmol/kg] | Av score (average radiation damage score, day 15-20) [1, 5] | effectiveness as radioprotectant [1] | Av score (average radiation damage score, day 15-20) [1, 6] | Av Score (average radiation damage score, day 12-24) [1] | further results
COC(=O)CN(CCN(CC(=O)OC)CC(=O)OC)CCN(CC(=O)OC)CC(=O)OC [DTPA methyl ester] | 1000 | 2.50 | not effective | – | – | –
O=C(O)CN(CCN(CC(=O)O)CC(=O)O)CCN(CC(=O)O)CC(=O)O [DTPA, diethylene triamine pentaacetic acid] | 8000 | – | slightly effective; also recorded: moderately effective | 1.34 | – | –
COc1cccc2c1C(=O)c1c(O)c3c(c(O)c1C2=O)C[C@@](O)(C(=O)CO)C[C@@H]3O[C@H]1C[C@H](N)[C@H](O)[C@H](C)O1 [Doxorubicin, doxorubicin] | – | – | – | – | – | BUN compared with the untreated control group ([2]; 25 mg/kg doxorubicin into tail vein): markedly increased BUN
O=C(O)CN(CCN(CC(=O)O)CC(=O)O)CC(=O)O [EDTA, ethylene-diamine tetraacetic acid] | 8000 | – | – | – | – | prevention of doxorubicin-induced BUN increase [2]: not
O=C(O)CNCC(=O)O [IDA, iminodiacetate] | 17000 | – | – | – | 1.19 | LD50 (in vivo): 33100 µmol/kg
CC(=O)N(O)CCCCCNC(=O)CCC(=O)N(O)CCCCCNC(=O)CCC(=O)N(O)CCCCCN [deferoxamine (DEF), deferoxamine] | – | – | – | – | – | effectiveness in reducing tissue injury [3]: some effectiveness in reducing tissue injury; excretion / circulation lifetime [4]: rapid excretion
Methoxypolyethlene Glycol Amide with EDTA [MPEDTA] | – | 1.67 | extremely effective; also recorded: very effective in reducing or preventing damage from radiation or doxorubicin | 1.50 | 0.24 | LD50 (Mice): 12.5 mmol/kg; MTD (maximum tolerated dose) (Mice): 8 mmol/kg; effect on tumoricidal effect of / tumor growth lag produced by doxorubicin (B16F1 malignant melanoma): clearly did not interfere with the tumoricidal effect of doxorubicin; also recorded: lack of effect; prevention of doxorubicin-induced BUN increase [2]: completely prevented
Methoxypolyethyene Glycol Amide with DTPA. Calcium Sodium Salt [MPDTP] | – | – | – | 1.21 | – | –
Methoxypolyethylene Glycol Iminodiacetate [MIDA] | – | – | moderately effective | – | 0.67 | LD50 (Mice): 20.6 mmol/kg; MTD (maximum tolerated dose) (Mice): 8 mmol/kg; ANOVA comparison of average scores between groups ([1]; average radiation damage scores, Tables II and III): little difference
Metyl Ester of MPEDTA [MPEDTAE] | – | 1.45 | also effective in protection from tissue injury | 0.88 | – | –
